According to PubChem BioAssay (NCI):
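Growth conditions: 96-well plates. Treatment: test compound, 48 hours, 5 concentrations. Analysis: linear interpolation between bracketing concentrations; unreached endpoints set to highest concentration. Here, GI50 denotes the concentration required for 50% inhibition of growth. TGI: concentration producing complete growth inhibition.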

System: MDA-MB-468 breast
Assay: DTP human tumour cell line panel, 48 h

| SMILES | GI50 [nM] | TGI [nM] |
| --- | --- | --- |
| CC[C@H](C)[C@H](NC(=O)c1cccn1C)C(=O)N(C)[C@H](C[C@@H](OC(C)=O)c1nc(C(=O)N[C@@H](Cc2ccccc2)C[C@H](C)C(=O)OC)cs1)C(C)C | 68.3 | 10800 |
| O=P(O)(O)OCC1OC(n2cnc3c(NCc4ccccc4)ncnc32)C(O)C1O (stereo not given) | 925 | 4120 |
| COc1ccc(S(=O)(=O)N(C(C)=O)c2ccccc2/C=C/c2cc[n+]([O-])cc2)cc1 | 461 | > 10000 |
| O=C(/C=C/C12c3ccccc3C(c3ccccc31)C1C(=O)NC(=O)C12)c1ccccc1 (stereo not given) | 1720 | 3680 |
| COc1ccc2[nH]c(C(=O)OCc3ccc4c(Cl)cc(Cl)c(O)c4n3)cc2c1 | 1360 | 2770 |
| ClC(Cl)c1nc(-c2cccs2)n2nc(-c3ccccc3)cc2n1 | 224 | 688 |
| CC(C)(C)OC(=O)Nc1ccc2c(c1)C(NC(=O)Nc1cccc(C#N)c1)CC(C)(C)O2 (stereo not given) | 381 | 9900 |
| COc1cc(C(=O)c2cocc2C(=O)c2ccc3c(c2)OCO3)cc(OC)c1OC | 4050 | > 100000 |
| CCN(CC)CCCCNc1c2ccc(Cl)cc2nc2ccc(OC)cc12 | 317 | 1830 |
| CCn1c2ccccc2c2cc(C(=O)c3ccc(C)c4ccccc34)ccc21 | 291 | 918 |
| C=C(C)[C@@H]1CC[C@]2(C(=O)NS(=O)(=O)c3ccccc3)CC[C@]3(C)[C@H](CC[C@@H]4[C@@]5(C)CC[C@H](OC(=O)NS(=O)(=O)c6ccccc6)C(C)(C)[C@@H]5CC[C@]43C)[C@@H]12 | 2220 | 10200 |
| c1ccc2c(c1)cc1ccc3cccc4ccc2c1c34 | 157 | 312 |
| CCn1c(-c2nonc2N)nc2c(N3CCCC3)nccc21 | 8920 | > 25000 |
| C[N+](C)=c1ccc2nc3c(cc(NCCCNc4cc5oc6cc(=[N+](C)C)ccc-6nc5c5ccccc45)c4ccccc43)oc-2c1 | 193 | 1350 |
| CC/C(=C/c1ccc(OC)cc1OC)[N+](=O)[O-] | 2020 | 4300 |
| COC[C@]12CCC(C)(C)C[C@H]1C1=CC[C@@H]3[C@@]4(C)CCCNC(C)(C)[C@@H]4CC[C@@]3(C)[C@]1(C)CC2 | 1530 | 3230 |
| CNC(=O)c1cncc(/C=C/c2ccccc2Cl)c1 | 9170 | > 25000 |
| C=C1CCC2C3(C)COC(c4ccccc4Cl)OC3CCC2(C)C1/C=C/C1=CCOC1=O (stereo not given) | 4960 | > 100000 |
| O=c1[nH]c(=O)n(C2CC(O)C(CO)O2)cc1C(F)(F)F (stereo not given) | > 85400 | > 100000 |
| CCCCn1c(=O)c(/C=C/C(=O)/C=C/c2cc3ccccc3n(CCCC)c2=O)cc2ccccc21 | 1640 | 3760 |
